Laboratory results as given in US6500959B1, “Pyrrolidine derivatives and processes for preparing same” (GPI NIL Holdings, Inc., priority 1995, dated 2002).
Entries after “also recorded” stand apart in the source; their conditions may differ.

How the values were obtained:
[1] = test system: chick dorsal root ganglia; assay: Chick dorsal root ganglion cultures and neurite outgrowth; type: cell-based; conditions: 48 h
From the text: (§1) Forty-eight hours later, the number of neurite with a length greater than one DRG explant was quantitated. The number of neurites expressed in untreated DRG's was subtracted from the neurite number of Example 17—treated samples to yield Example 17—dependent specific neurite outgrowth.
as §1, with “form” for “from”, “outgrowth. Quantitative dose-dependent neurite outgrowth elicited by Example 17 is presented.” for “outgrowth.”
Dorsal root ganglia were dissected from chick embryos of ten day gestation. Whole ganglion explants were cultured on thin layer Matrigel-coated 12 well plates with Liebovitz L15 plus high glucose media supplemented with 2 mM glutamine and 10% fetal calf serum, and also containing 10 μM cytosine β-D arabinofuranoside (Ara C) at 37° C. in an environment containing 5% CO2. Twenty-four hours later, the DRGs were treated with various concentrations of nerve growth factor, immunophilin ligands or combinations of NFG plus drugs. Forty-eight hours after drug treatment, the ganglia were visualized under phase contrast or Hoffman Modulation contrast with a Zeiss Axiovert inverted microscope. Photomicrographs of the explants were made, and neurite outgrowth was quantitated. Neurites longer than the DRG diameter were counted as positive, with total number of neurites quantitated per each experimental condition. Three to four DRGs are cultured per well, and each treatment was performed in duplicate.

[2] = test system: dopaminergic neurons; assay: MPTP model of Parkinson's Disease in mice; type: in vivo, CD1 mice
Method: FIG. 4 is a graph of [^3H]-CFT binding per μg of Striatal Membrane Protein. […] CD1 mice (25 g) were treated daily with 30 mg/kg MPTP (i.p.) for 5 days. […] After eighteen days, the mice were sacrificed, striata from 5 animals per group were pooled and processed into a washed membrane preparation. Binding of [3H]-CFT to these striated membrane preparations of various groups was quantitated to determine dopamine transporter levels on viable nerve terminals. Binding in the presence of 10 μM unlabelled CFT provided on estimate of nonspecific binding, which as subtracted from the total binding to quantitative specific [3H]-CFT bound. Binding was normalized to the protein content of the striatal membranes from each experimental group. Coronal and saggital brain sections from MPTP and drug treated animals were stained with anti-tyrosine hydroxylase (TH) Ig to quantitate striatal, medial forebrain bundle axonal and nigral levels of TH, which is indicative of functional dopaminergic neurons. […] Binding of [3H]CFT, a radioligand for the dopamine transporter, to the […] membranes was done to quantitate the level of the dopamine transporter (DAT) following lesion and drug treatment. Immunostaining was performed on saggital and coronal brain sections using anti-tyrosine hydoxylase Ig to quantitate survival and recovery of dopaminergic neurons. […]

## CCC(C)(C)C(=O)C(=O)N1CCC[C@H]1C(=O)OCCCc1cccnc1 [Example 17, 3-(3-Pyridyl)-1-propyl (2S)-1-(3,3-dimethyl-1,2-dioxopentyl)-2-pyrrolidinecarboxylate]
[1]; Gallus gallus, read-out: ED50, neurite outgrowth
  EC50: 0.05 nM
[1]; chick DRG explants, various concentrations
  neurite outgrowth in sensory neuronal cultures: potently promotes neurite outgrowth
[2]; 40 mg/kg s.c. in addition to MPTP, striatal membranes, dopamine transporter level
  recovery of [3H]-CFT binding: greater than 90%
[2]; 10-40 mg/kg s.c., striatum, nigra, medial forebrain bundle, versus MPTP/Vehicle
  recovery of TH-stained dopaminergic neurons (tyrosine hydroxylase immunostaining): nearly quantitative recovery; also recorded: clear and marked recovery of functional neurons
